target: T1, Interstitial collagenase (Homo sapiens) (UniProt P03956); test: Inhibition of human recombinant MMP1 at 100 uM after 1 hr by fluorescence polarization based competition assay
T1 sequence (whole entry): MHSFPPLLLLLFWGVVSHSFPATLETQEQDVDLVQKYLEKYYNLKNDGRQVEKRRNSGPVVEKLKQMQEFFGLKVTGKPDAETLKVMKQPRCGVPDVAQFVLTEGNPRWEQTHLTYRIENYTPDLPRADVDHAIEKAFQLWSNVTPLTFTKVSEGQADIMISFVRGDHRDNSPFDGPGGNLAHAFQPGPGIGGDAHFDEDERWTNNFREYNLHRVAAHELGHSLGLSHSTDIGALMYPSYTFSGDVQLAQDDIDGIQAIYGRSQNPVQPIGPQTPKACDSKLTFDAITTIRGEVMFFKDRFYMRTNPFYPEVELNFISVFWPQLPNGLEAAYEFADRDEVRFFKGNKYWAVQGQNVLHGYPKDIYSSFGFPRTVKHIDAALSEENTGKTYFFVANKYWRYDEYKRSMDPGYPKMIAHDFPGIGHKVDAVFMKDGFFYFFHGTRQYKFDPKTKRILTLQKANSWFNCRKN

Compound	inhibition [%]
COc1ccc(C(=O)c2coc3cc(Br)c(O)cc23)cc1	10
COc1cc(C(=O)c2coc3c(Cl)c(Cl)c(O)cc23)cc(OC)c1OC	0
COc1ccc(C(=O)c2coc3ccc(O)c(Br)c23)cc1	0
COc1ccc(C(=O)c2coc3c2C(=O)C(=O)C(Br)=C3Br)cc1OC	46
COc1ccc(C(=O)c2coc3cc(Cl)c(O)c(Cl)c23)cc1	0
COc1ccc(C(=O)c2coc3ccc(O)cc23)cc1	0
O=C(c1ccccc1)c1coc2ccc(O)cc12	0

system: Y79; test: Cytotoxicity against human Y79 cells; type: functional, cell-based

Compound	IC50 [µM]
COc1ccc(C(=O)c2coc3cc(Br)c(O)cc23)cc1	100
COc1cc(C(=O)c2coc3c(Cl)c(Cl)c(O)cc23)cc(OC)c1OC	100
COc1ccc(C(=O)c2coc3ccc(O)c(Br)c23)cc1	100
COc1ccc(C(=O)c2coc3c2C(=O)C(=O)C(Br)=C3Br)cc1OC	100
COc1ccc(C(=O)c2coc3cc(Cl)c(O)c(Cl)c23)cc1	100
COc1ccc(C(=O)c2coc3ccc(O)cc23)cc1	100
O=C(c1ccccc1)c1coc2ccc(O)cc12	100

target: T2, Peptide deformylase (Escherichia coli) (UniProt Q9JN24); test: Inhibition of Escherichia coli peptide deformylase at 100 uM after 1 hr by fluorescence polarization based competition assay
T2 sequence (whole entry): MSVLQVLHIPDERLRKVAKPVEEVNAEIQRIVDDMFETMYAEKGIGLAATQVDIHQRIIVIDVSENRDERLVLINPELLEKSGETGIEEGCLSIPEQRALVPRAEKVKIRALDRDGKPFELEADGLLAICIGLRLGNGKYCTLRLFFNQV

Compound	inhibition [%]
COc1ccc(C(=O)c2coc3cc(Br)c(O)cc23)cc1	0
COc1cc(C(=O)c2coc3c(Cl)c(Cl)c(O)cc23)cc(OC)c1OC	2
COc1ccc(C(=O)c2coc3ccc(O)c(Br)c23)cc1	0
COc1ccc(C(=O)c2coc3c2C(=O)C(=O)C(Br)=C3Br)cc1OC	53
COc1ccc(C(=O)c2coc3cc(Cl)c(O)c(Cl)c23)cc1	3
COc1ccc(C(=O)c2coc3ccc(O)cc23)cc1	0
O=C(c1ccccc1)c1coc2ccc(O)cc12	7

system: not listed separately; test: Cytotoxicity against human Meso47 cells; type: functional, cell-based

Compound	IC50 [µM]
COc1ccc(C(=O)c2coc3cc(Br)c(O)cc23)cc1	100
COc1cc(C(=O)c2coc3c(Cl)c(Cl)c(O)cc23)cc(OC)c1OC	100
COc1ccc(C(=O)c2coc3ccc(O)c(Br)c23)cc1	100
COc1ccc(C(=O)c2coc3c2C(=O)C(=O)C(Br)=C3Br)cc1OC	100
COc1ccc(C(=O)c2coc3cc(Cl)c(O)c(Cl)c23)cc1	100
COc1ccc(C(=O)c2coc3ccc(O)cc23)cc1	100
O=C(c1ccccc1)c1coc2ccc(O)cc12	100

target: T3, Peptide deformylase, mitochondrial (Homo sapiens) (UniProt Q9HBH1); test: Inhibition of human peptide deformylase at 100 uM after 1 hr by fluorescence polarization based competition assay
T3 sequence (whole entry): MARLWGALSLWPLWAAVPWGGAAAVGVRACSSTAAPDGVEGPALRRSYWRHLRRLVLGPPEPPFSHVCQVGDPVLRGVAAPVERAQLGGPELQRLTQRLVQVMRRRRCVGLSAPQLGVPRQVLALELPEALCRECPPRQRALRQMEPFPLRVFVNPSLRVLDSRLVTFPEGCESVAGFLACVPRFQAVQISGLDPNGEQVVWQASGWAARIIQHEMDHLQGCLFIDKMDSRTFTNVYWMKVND

Compound	inhibition [%]
COc1ccc(C(=O)c2coc3cc(Br)c(O)cc23)cc1	0
COc1cc(C(=O)c2coc3c(Cl)c(Cl)c(O)cc23)cc(OC)c1OC	18
COc1ccc(C(=O)c2coc3ccc(O)c(Br)c23)cc1	0
COc1ccc(C(=O)c2coc3c2C(=O)C(=O)C(Br)=C3Br)cc1OC	100
COc1ccc(C(=O)c2coc3cc(Cl)c(O)c(Cl)c23)cc1	26
COc1ccc(C(=O)c2coc3ccc(O)cc23)cc1	0
O=C(c1ccccc1)c1coc2ccc(O)cc12	11

target: T4, Peptide deformylase (Escherichia coli, UniProt Q9JN24); test: Inhibition of Escherichia coli peptide deformylase after 1 hr by fluorescence polarization based competition assay
T4 sequence (Q9JN24 whole entry): T2 sequence (whole entry)

Compound	IC50 [µM]
COc1ccc(C(=O)c2coc3c2C(=O)C(=O)C(Br)=C3Br)cc1OC	> 100

system: not listed separately; test: Cytotoxicity against human ALL3 cells; type: functional, cell-based

Compound	IC50 [µM]
COc1ccc(C(=O)c2coc3cc(Br)c(O)cc23)cc1	100
COc1cc(C(=O)c2coc3c(Cl)c(Cl)c(O)cc23)cc(OC)c1OC	100
COc1ccc(C(=O)c2coc3ccc(O)c(Br)c23)cc1	100
COc1ccc(C(=O)c2coc3c2C(=O)C(=O)C(Br)=C3Br)cc1OC	36
COc1ccc(C(=O)c2coc3cc(Cl)c(O)c(Cl)c23)cc1	100
COc1ccc(C(=O)c2coc3ccc(O)cc23)cc1	100
O=C(c1ccccc1)c1coc2ccc(O)cc12	100

system: MOLT-3; test: Cytotoxicity against human MOLT3 cells; type: functional, cell-based

Compound	IC50 [µM]
COc1ccc(C(=O)c2coc3cc(Br)c(O)cc23)cc1	72
COc1cc(C(=O)c2coc3c(Cl)c(Cl)c(O)cc23)cc(OC)c1OC	100
COc1ccc(C(=O)c2coc3ccc(O)c(Br)c23)cc1	100
COc1ccc(C(=O)c2coc3c2C(=O)C(=O)C(Br)=C3Br)cc1OC	25
COc1ccc(C(=O)c2coc3cc(Cl)c(O)c(Cl)c23)cc1	32
COc1ccc(C(=O)c2coc3ccc(O)cc23)cc1	100
O=C(c1ccccc1)c1coc2ccc(O)cc12	100

system: HL-60; test: Cytotoxicity against human vincristine-resistant HL60 cells; type: functional, cell-based

Compound	IC50 [µM]
COc1ccc(C(=O)c2coc3cc(Br)c(O)cc23)cc1	100
COc1cc(C(=O)c2coc3c(Cl)c(Cl)c(O)cc23)cc(OC)c1OC	100
COc1ccc(C(=O)c2coc3ccc(O)c(Br)c23)cc1	100
COc1ccc(C(=O)c2coc3c2C(=O)C(=O)C(Br)=C3Br)cc1OC	64
COc1ccc(C(=O)c2coc3cc(Cl)c(O)c(Cl)c23)cc1	100
COc1ccc(C(=O)c2coc3ccc(O)cc23)cc1	100
O=C(c1ccccc1)c1coc2ccc(O)cc12	100

system: not listed separately; test: Cytotoxicity against human CWR22 cells; type: functional, cell-based

Compound	IC50 [µM]
COc1ccc(C(=O)c2coc3cc(Br)c(O)cc23)cc1	47
COc1cc(C(=O)c2coc3c(Cl)c(Cl)c(O)cc23)cc(OC)c1OC	100
COc1ccc(C(=O)c2coc3ccc(O)c(Br)c23)cc1	100
COc1ccc(C(=O)c2coc3c2C(=O)C(=O)C(Br)=C3Br)cc1OC	100
COc1ccc(C(=O)c2coc3cc(Cl)c(O)c(Cl)c23)cc1	100
COc1ccc(C(=O)c2coc3ccc(O)cc23)cc1	100
O=C(c1ccccc1)c1coc2ccc(O)cc12	100

system: Jurkat; test: Cytotoxicity against human Jurkat cells; type: functional, cell-based

Compound	IC50 [µM]
COc1ccc(C(=O)c2coc3cc(Br)c(O)cc23)cc1	100
COc1cc(C(=O)c2coc3c(Cl)c(Cl)c(O)cc23)cc(OC)c1OC	100
COc1ccc(C(=O)c2coc3ccc(O)c(Br)c23)cc1	100
COc1ccc(C(=O)c2coc3c2C(=O)C(=O)C(Br)=C3Br)cc1OC	28
COc1ccc(C(=O)c2coc3cc(Cl)c(O)c(Cl)c23)cc1	24
COc1ccc(C(=O)c2coc3ccc(O)cc23)cc1	33
O=C(c1ccccc1)c1coc2ccc(O)cc12	100

target: T3, Peptide deformylase, mitochondrial (Homo sapiens); test: Inhibition of human peptide deformylase at 10 uM after 1 hr by fluorescence polarization based competition assay

Compound	inhibition [%]
Cc1ccc(C(=O)c2coc3c2C(=O)C(=O)C(Br)=C3)cc1	81
CC(=O)C(C(C)=O)C1=C(Cl)C(=O)C(=O)c2c(C(=O)c3ccc(C)cc3)coc21	75
O=C1C(=O)c2c(C(=O)c3ccccc3)coc2C=C1Br	97

system: HL-60; test: Cytotoxicity against human HL60 cells; type: functional, cell-based

Compound	IC50 [µM]
COc1ccc(C(=O)c2coc3cc(Br)c(O)cc23)cc1	100
COc1cc(C(=O)c2coc3c(Cl)c(Cl)c(O)cc23)cc(OC)c1OC	100
COc1ccc(C(=O)c2coc3ccc(O)c(Br)c23)cc1	100
COc1ccc(C(=O)c2coc3c2C(=O)C(=O)C(Br)=C3Br)cc1OC	42
COc1ccc(C(=O)c2coc3cc(Cl)c(O)c(Cl)c23)cc1	19
COc1ccc(C(=O)c2coc3ccc(O)cc23)cc1	100
O=C(c1ccccc1)c1coc2ccc(O)cc12	100

system: HEK293; test: Cytotoxicity against human HEK293 cells; type: cell-based

Compound	IC50 [µM]
COc1ccc(C(=O)c2coc3cc(Br)c(O)cc23)cc1	72
COc1cc(C(=O)c2coc3c(Cl)c(Cl)c(O)cc23)cc(OC)c1OC	100
COc1ccc(C(=O)c2coc3ccc(O)c(Br)c23)cc1	100
COc1ccc(C(=O)c2coc3c2C(=O)C(=O)C(Br)=C3Br)cc1OC	100
COc1ccc(C(=O)c2coc3cc(Cl)c(O)c(Cl)c23)cc1	32
COc1ccc(C(=O)c2coc3ccc(O)cc23)cc1	100
O=C(c1ccccc1)c1coc2ccc(O)cc12	100

target: T5, Peptide deformylase, mitochondrial (Homo sapiens, UniProt Q9HBH1); test: Inhibition of human peptide deformylase after 1 hr by fluorescence polarization based competition assay
T5 sequence (Q9HBH1 whole entry): T3 sequence (whole entry)

Compound	IC50 [µM]
COc1ccc(C(=O)c2coc3c2C(=O)C(=O)C(Br)=C3Br)cc1OC	10

target: T6, Aminopeptidase N (Sus scrofa) (UniProt P15145); test: Inhibition of porcine kidney microsomal aminopeptidase N at 100 uM after 1 hr by fluorescence polarization based competition assay
T6 sequence (whole entry): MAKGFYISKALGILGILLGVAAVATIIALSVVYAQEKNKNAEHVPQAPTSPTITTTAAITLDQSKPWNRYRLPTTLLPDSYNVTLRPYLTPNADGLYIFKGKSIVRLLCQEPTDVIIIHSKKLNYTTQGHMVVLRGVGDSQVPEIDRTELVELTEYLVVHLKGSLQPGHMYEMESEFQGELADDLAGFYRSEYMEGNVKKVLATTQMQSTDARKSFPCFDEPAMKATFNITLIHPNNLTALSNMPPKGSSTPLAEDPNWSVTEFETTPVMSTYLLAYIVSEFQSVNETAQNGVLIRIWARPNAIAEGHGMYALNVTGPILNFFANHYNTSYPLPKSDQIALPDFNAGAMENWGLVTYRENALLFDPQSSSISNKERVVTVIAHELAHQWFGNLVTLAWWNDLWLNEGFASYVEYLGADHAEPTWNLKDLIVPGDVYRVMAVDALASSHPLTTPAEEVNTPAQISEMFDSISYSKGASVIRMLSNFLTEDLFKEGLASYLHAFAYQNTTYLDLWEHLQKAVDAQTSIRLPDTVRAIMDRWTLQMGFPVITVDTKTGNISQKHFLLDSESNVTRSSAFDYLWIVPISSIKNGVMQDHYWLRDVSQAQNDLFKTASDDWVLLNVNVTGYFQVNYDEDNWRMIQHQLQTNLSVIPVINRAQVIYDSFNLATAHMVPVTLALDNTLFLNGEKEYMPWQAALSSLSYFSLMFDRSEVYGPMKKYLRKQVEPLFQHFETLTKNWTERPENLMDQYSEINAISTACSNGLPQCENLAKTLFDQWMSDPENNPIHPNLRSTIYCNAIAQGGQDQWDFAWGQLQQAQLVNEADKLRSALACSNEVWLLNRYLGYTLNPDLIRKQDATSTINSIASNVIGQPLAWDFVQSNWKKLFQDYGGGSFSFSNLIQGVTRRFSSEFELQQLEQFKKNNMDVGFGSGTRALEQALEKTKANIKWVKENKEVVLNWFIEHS

Compound	inhibition [%]
COc1ccc(C(=O)c2coc3cc(Br)c(O)cc23)cc1	0
COc1cc(C(=O)c2coc3c(Cl)c(Cl)c(O)cc23)cc(OC)c1OC	2
COc1ccc(C(=O)c2coc3ccc(O)c(Br)c23)cc1	0
COc1ccc(C(=O)c2coc3c2C(=O)C(=O)C(Br)=C3Br)cc1OC	96
COc1ccc(C(=O)c2coc3cc(Cl)c(O)c(Cl)c23)cc1	0
COc1ccc(C(=O)c2coc3ccc(O)cc23)cc1	4
O=C(c1ccccc1)c1coc2ccc(O)cc12	10
